In ChEMBL document CHEMBL2176888, “Structure-activity relationships in human Toll-like receptor 8-active 2,3-diamino-furo[2,3-c]pyridines” (J Med Chem, 2012):
The source made the active and inactive calls.

Columns and labels:
Assay type in all cases: functional, cell-based
[1] = target: T1, Toll-like receptor 8 (Homo sapiens) (UniProt Q9NR97); assay: Agonist activity at human TLR8 expressed in HEK293 cells assessed as induction of NF-kappaB activity by measuring extracellular secreted alkaline phosphatase up to 250 uM by HEK-blue reporter gene assay
T1 sequence (whole entry): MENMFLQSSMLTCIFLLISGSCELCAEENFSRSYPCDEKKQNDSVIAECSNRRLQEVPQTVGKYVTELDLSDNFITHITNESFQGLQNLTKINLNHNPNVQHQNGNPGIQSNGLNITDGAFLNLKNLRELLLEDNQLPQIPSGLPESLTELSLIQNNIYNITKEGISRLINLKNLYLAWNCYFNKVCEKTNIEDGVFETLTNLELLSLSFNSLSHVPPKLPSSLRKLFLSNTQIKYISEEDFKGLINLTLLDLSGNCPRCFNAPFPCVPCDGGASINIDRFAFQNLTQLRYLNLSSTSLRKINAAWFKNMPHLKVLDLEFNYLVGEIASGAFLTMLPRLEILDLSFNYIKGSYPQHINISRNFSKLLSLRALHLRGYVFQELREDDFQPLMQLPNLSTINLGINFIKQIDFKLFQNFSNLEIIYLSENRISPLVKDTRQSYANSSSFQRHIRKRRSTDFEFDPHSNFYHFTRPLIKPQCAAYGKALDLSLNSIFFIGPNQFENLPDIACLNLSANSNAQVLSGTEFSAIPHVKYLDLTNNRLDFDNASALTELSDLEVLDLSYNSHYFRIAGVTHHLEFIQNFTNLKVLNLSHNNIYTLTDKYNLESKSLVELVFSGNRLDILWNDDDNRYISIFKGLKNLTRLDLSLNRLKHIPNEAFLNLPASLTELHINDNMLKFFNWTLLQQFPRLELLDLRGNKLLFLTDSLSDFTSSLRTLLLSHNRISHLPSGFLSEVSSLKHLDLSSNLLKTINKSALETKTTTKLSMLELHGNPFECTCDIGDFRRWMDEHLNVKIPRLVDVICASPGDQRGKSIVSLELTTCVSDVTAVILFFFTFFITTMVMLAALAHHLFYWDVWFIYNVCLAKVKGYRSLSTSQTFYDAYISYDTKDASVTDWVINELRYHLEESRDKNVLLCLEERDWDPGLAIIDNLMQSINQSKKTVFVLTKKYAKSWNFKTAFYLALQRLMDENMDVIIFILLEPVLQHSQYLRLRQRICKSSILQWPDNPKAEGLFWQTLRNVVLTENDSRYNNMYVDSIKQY

[2] = target: Toll-like receptor 5 (Homo sapiens) (UniProt O60602); assay: Agonist activity at human TLR5 expressed in HEK293 cells assessed as induction of NF-kappaB activity by measuring extracellular secreted alkaline phosphatase up to 250 uM by HEK-blue reporter gene assay
Sequence of Toll-like receptor 5 (Homo sapiens) (O60602 whole entry): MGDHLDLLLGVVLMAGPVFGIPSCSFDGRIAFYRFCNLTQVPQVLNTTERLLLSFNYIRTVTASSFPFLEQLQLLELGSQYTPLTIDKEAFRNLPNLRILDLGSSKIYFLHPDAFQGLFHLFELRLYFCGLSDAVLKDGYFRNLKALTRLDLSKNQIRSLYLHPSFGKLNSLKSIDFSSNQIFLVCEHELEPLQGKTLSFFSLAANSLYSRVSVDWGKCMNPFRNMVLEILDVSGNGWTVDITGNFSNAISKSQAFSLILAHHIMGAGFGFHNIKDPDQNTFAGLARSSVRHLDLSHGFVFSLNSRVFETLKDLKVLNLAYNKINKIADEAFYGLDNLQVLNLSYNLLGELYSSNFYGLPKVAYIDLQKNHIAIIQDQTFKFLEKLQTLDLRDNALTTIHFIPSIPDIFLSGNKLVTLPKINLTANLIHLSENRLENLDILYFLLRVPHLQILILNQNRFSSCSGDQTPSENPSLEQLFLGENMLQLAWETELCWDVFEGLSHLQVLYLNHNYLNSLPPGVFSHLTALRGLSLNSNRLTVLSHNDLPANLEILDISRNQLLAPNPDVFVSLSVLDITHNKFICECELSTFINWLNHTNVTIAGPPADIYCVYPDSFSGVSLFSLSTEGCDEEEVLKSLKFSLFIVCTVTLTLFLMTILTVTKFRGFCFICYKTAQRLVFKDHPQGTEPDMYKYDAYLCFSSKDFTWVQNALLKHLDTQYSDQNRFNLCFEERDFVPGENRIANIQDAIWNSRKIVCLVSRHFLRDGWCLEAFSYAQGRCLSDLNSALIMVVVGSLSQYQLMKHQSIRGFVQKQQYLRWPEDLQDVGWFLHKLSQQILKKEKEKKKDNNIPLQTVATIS

[3] = target: T2, Toll-like receptor 7 (Homo sapiens) (UniProt Q9NYK1); assay: Agonist activity at human TLR7 expressed in HEK293 cells assessed as induction of NF-kappaB activity by measuring extracellular secreted alkaline phosphatase up to 250 uM by HEK-blue reporter gene assay
T2 sequence (whole entry): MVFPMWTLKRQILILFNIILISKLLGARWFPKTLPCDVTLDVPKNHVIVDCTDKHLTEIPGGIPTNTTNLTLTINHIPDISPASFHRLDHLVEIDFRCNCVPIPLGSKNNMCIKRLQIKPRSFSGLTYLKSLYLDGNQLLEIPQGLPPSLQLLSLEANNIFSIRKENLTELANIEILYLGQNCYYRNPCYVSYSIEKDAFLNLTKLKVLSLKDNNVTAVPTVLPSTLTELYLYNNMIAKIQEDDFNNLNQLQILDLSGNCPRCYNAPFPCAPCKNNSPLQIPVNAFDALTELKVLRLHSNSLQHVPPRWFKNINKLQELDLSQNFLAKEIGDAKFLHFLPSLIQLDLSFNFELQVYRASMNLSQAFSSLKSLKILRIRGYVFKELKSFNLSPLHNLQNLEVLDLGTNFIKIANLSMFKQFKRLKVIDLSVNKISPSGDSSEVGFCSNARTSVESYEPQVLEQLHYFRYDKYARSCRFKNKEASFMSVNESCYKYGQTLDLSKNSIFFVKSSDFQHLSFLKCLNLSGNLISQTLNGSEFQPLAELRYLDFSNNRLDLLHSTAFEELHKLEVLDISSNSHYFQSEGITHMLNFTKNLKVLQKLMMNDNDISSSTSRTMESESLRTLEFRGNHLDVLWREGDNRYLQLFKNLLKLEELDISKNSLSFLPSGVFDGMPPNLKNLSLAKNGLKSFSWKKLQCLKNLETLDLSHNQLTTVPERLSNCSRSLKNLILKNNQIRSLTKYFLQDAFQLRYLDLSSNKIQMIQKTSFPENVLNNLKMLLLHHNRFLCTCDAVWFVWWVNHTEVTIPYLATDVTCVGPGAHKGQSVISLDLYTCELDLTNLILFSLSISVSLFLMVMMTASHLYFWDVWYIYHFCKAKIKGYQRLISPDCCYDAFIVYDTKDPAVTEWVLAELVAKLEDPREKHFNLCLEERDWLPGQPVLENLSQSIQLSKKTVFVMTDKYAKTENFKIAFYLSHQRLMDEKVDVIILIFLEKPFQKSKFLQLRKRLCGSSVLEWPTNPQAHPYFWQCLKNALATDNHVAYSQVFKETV

[4] = target: T3, Toll-like receptor 9 (Homo sapiens) (UniProt Q9NR96); assay: Agonist activity at human TLR9 expressed in HEK293 cells assessed as induction of NF-kappaB activity by measuring extracellular secreted alkaline phosphatase up to 250 uM by HEK-blue reporter gene assay
T3 sequence (whole entry): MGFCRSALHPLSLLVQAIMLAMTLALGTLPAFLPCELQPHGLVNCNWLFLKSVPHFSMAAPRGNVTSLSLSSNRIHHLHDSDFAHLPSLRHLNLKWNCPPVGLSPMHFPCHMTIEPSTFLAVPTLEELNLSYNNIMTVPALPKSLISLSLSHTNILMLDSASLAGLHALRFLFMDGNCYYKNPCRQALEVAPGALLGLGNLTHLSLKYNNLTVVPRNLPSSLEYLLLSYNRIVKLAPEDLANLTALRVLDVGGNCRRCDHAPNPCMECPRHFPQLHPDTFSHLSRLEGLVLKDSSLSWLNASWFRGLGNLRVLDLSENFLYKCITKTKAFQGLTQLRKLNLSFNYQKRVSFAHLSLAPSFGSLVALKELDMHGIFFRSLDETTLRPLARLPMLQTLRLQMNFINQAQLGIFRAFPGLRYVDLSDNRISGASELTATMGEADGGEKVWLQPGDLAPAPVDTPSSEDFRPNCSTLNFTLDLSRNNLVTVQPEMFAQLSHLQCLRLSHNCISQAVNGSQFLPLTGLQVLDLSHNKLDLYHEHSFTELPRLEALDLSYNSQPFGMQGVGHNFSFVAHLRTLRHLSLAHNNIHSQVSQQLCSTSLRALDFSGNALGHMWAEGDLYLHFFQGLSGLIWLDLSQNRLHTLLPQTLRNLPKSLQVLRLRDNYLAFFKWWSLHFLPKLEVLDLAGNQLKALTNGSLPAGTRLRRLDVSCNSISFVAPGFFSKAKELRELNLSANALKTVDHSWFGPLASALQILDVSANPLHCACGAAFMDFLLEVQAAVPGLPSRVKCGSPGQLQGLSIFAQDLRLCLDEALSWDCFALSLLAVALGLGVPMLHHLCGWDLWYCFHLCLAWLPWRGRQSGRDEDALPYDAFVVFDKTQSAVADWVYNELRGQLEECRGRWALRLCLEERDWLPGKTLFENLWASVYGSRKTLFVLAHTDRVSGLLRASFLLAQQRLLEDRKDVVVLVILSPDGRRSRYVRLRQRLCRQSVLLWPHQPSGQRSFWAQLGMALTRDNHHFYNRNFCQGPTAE

[5] = target: Toll-like receptor 4 (Homo sapiens) (UniProt O00206); assay: Agonist activity at human TLR4 expressed in HEK293 cells assessed as induction of NF-kappaB activity by measuring extracellular secreted alkaline phosphatase up to 250 uM by HEK-blue reporter gene assay
Sequence of Toll-like receptor 4 (Homo sapiens) (O00206 whole entry): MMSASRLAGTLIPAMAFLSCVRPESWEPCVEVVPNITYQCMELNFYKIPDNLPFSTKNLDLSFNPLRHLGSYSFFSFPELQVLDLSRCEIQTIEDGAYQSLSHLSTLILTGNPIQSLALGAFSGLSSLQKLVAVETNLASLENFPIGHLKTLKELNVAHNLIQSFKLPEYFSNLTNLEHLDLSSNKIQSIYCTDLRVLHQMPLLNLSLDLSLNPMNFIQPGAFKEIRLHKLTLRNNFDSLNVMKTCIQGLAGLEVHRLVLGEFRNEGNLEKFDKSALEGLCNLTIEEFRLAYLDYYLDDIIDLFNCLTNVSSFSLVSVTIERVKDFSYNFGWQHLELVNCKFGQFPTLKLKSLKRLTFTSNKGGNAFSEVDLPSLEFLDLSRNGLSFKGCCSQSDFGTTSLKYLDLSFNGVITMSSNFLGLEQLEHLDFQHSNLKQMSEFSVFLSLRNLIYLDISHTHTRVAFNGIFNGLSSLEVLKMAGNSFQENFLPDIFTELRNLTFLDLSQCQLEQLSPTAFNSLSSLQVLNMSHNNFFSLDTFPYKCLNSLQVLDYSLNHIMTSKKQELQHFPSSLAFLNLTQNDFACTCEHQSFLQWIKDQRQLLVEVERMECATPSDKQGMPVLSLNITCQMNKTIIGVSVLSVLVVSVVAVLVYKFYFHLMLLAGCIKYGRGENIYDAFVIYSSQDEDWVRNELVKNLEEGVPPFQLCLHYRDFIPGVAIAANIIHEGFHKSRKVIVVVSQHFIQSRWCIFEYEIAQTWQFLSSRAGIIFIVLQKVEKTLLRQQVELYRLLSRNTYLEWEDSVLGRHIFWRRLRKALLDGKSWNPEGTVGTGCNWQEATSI

[6] = target: Toll-like receptor 3 (Homo sapiens) (UniProt O15455); assay: Agonist activity at human TLR3 expressed in HEK293 cells assessed as induction of NF-kappaB activity by measuring extracellular secreted alkaline phosphatase up to 250 uM by HEK-blue reporter gene assay
Sequence of Toll-like receptor 3 (Homo sapiens) (O15455 whole entry): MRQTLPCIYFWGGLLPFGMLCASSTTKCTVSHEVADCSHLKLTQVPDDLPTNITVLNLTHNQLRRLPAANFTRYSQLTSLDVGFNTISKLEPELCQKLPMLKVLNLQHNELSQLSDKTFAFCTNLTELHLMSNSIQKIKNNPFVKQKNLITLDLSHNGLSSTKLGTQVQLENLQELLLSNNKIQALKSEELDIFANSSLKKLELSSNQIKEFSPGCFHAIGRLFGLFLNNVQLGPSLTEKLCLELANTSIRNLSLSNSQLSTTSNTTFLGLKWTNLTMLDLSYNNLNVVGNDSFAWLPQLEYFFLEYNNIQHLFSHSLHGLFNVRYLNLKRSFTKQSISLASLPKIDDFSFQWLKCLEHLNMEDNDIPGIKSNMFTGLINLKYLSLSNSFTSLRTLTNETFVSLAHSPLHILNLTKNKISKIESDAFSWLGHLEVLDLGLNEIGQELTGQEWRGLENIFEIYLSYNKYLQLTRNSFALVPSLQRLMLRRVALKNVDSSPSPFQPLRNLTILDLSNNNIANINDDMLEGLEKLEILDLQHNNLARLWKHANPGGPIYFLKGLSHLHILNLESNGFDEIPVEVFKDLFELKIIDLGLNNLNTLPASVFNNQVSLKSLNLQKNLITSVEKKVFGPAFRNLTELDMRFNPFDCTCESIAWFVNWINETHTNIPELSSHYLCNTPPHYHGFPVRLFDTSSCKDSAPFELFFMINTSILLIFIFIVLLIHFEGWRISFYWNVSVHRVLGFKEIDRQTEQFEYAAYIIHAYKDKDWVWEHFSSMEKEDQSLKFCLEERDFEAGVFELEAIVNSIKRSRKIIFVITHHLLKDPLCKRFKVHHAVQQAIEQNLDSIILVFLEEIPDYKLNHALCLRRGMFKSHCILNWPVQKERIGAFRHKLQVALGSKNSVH

Measured: Activity

CC(C)(C)Nc1c(-c2ccccc2)nc2cnccn12
inactive: all assays above

c1ccn2c(NC3CCCCC3)c(-c3ccncc3)nc2c1
inactive: all assays above

CC(C)(C)Nc1c(-c2ccccc2O)nc2ccccn12
inactive: all assays above

CCCCc1nc2c(N)nccn2c1NCc1ccccc1
inactive: all assays above

c1ccc(CNc2c(-c3ccccc3)nc3ccccn23)cc1
inactive: all assays above

c1ccc(CNc2c(-c3ccccc3)nc3cnccn23)cc1
inactive: all assays above

CCCCc1nc2c(N)nccn2c1Nc1ccc(OC)cc1
inactive: all assays above

c1ccc(CNc2c(-c3ccncc3)nc3cnccn23)cc1
inactive: all assays above

CC(C)(C)Nc1c(-c2ccncc2)nc2cnccn12
inactive: all assays above

c1cc(-c2nc3cnccn3c2NC2CCCCC2)ccn1
inactive: all assays above

Oc1ccccc1-c1nc2ccccn2c1NC1CCCCC1
inactive: all assays above

c1ccc(-c2nc3cnccn3c2NC2CCCCC2)cc1
inactive: all assays above

CC(C)(C)Nc1c(-c2ccncc2)nc2ccccn12
inactive: all assays above

c1ccc(-c2nc3ccccn3c2NC2CCCCC2)cc1
inactive: all assays above
